In this test the test system is healthy adult ventricular cardiac muscle cells. The test is described as follows: Microinjection of activated caspase-3 into isolated ventricular cardiac muscle cells. In kind it is cell-based, rabbit. The following applies: pre-incubation of the muscle cells with inhibitor (100 μmol/l). As for the experimental part: The microinjection experiments were carried out on freshly isolated cardiac muscle cells of sham-operated rabbits by means of a “Femto-Jet” microinjection device (Eppendorf, Hamburg, Germany). FITC-conjugated dextran (6 mg/ml), alone or in combination with human recombinant active caspase-3 (4 ng/μl and 20 ng/μl) in 5 mmol/l potassium phosphate buffer (pH value 7.4; 100 mmol/l KCl) was injected into the cytoplasm of the cells in culture medium (Pi=1000 hPa, ti=0.1 sec., Pc=30 hPa) which had been supplemented with 200 μmol/l BDM (butanedione-monoxime, Sigma, Taufkirchen, Germany), 10 μmol/l verapamil and, optionally, 100 μmol/l […]. After incubation for two hours, contraction measurements or phalloidin staining were carried out. Injected cells were selected by means of FITC fluorescence.
In order to be able to study whether the activation of caspase-3 is sufficient for the induction of the worsening of sarcomere organisation, the activated enzyme was injected into the cytoplasm of healthy adult ventricular cardiac muscle cells. Positive cells (approximately 10 to 20%) were identified by means of FITC fluorescence. The morphological features of the cardiac muscle cells after microinjection of activated caspase-3 (4 ng/μl and 20 ng/μl) in comparison with control-injected cells are shown in FIGS. 9(a+b). […]

With DEVD-fmk, the “caspase-3-mediated lowering of contraction” value is “blocked”.

The values above are taken from patent publication US20030130216A1, “Use of inhibitors of caspase-3 or caspase-activated desoxyribonuclease(cad) for treating cardiac disease” (priority 2000, published 2003).
